Source: patent US6514732B1, “Process for preparing baccatin” (Indena S.p.A., priority 1998, dated 2003)
“Also recorded” adds a separate entry of the source.

Tests used:
Assay type in all cases: biochemical, Taxus chinensis
[1] = system: acetyl transferase (acetyl CoA 10-hydroxytaxane-O-acetyl transferase); assay: Substrate specificity of the purified acetyl transferase (conversion of taxane substrates with [2-14C]acetyl CoA); details: for acetylation / acceptance as substrate by the enzyme (in words): purified acetyl transferase, acetyl donor acetyl CoA; for Conversion, based on the conversion of 10-deacetyltaxuyunnanin C / pkat (enzyme activity with the substrate): Enzyme: Phenylsepharose eluate (225-fold purified)
Experimental: A sufficient amount of the enzyme solution to be tested was pipetted into 50 μl of tris buffer (0.8 M, pH 8.5) in an Eppendorf cap. 30 μl of purified acetyl CoA (5 nmol of unlabelled and 0.02 μCi-[2-^14C]acetyl coenzyme A) and 15 nmol of a 3 mM stock solution of 10-deacetyltaxuyunnanin C dissolved in DMSO were then added (for the control only the corresponding amount of DMSO instead of this taxane). The mixture was incubated at 35° C. for 30 minutes and then acidified using 20 μl of 12% H2SO4, the taxuyunnanin C formed was extracted using 600 μl of tert-butyl methyl ether (10 min. in an overhead shaker) and the mixture was then centrifuged (4 min at 14,000 rpm in an Eppendorf centrifuge). The unreacted [2-^14C]acetyl CoA which was still present remained in the aqueous phase. 500 μl of the organic phase were evaporated to dryness in a stream of air, which simultaneously removed any [2-^14C]acetic acid present which, owing to the earlier acidification, was present as the acid and was therefore volatile. Using a scintillation counter (Multipurpose Scintillation Counter LS 6500, from Beckmann) or a thin-layer radioscanner (Automatic TLC Linear Analyser, from Berthold), the type and the amount of the product formed were determined. The former apparatus was used to determine the conversion and thus the activity of the enzyme using the cpm values counted. With the aid of thin-layer chromatography (TLC) (mobile phase: chloroform:acetonitrile 7:3) and the subsequent evaluation using a radioscanner, it was possible to check whether the radioactivity measured using the scintillation counter did indeed correspond to a peak in the region of the Rf value of the expected product.
To check the substrate specificity of the purified acetyl transferase, various compounds having a taxane skeleton were used as substrate.
10-DAB is converted with a rate of conversion of 85%, compared to 10-deacetyltaxuyunnanin C to baccatin III.
Conversion of Various Substrates, Based on the Conversion of 10-deacetyltaxuyunnanin C
Enzyme: Phenylsepharose eluate (225-fold purified)

acetyl transferase [2] = assay: KM value determination for acetyl coenzyme A (Lineweaver-Burk); details: phenylsepharose eluate, 225-fold enriched; 30 min at 35° C., pH 8.5
Experimental: The affinity of acetyl transferase to acetyl coenzyme A can be described by the KM value, which was determined using the phenylsepharose eluate.
100 μl of acetyl transferase (0.25 pcat, 40 ng of protein, 225-fold enriched)
5 μl of 3 mM 10-deacetyltaxuyunnanin C (15 nmol)
30 min at 35° C. Evaluation was subsequently carried out by extraction with tert-butyl methyl ether and the use of a scintillation counter. By plotting the measured values in a doubly reciprocal manner according to Lineweaver and Burk, the KM value for acetyl coenzyme A was determined at 61 μM.

acetyl transferase [3] = assay: KM value determination for 10-deacetyltaxuyunnanin C (Lineweaver-Burk); details: phenylsepharose eluate, 225-fold enriched; 30 min at 35° C., pH 8.5
Experimental: To gain information about the affinity of the acetyl transferase to 10-deacetyltaxuyunnanin C, the KM value of the phenylsepharose eluate was determined.
100 μl of acetyl-transferase (0.25 pcat, 40 ng of protein, 225-fold enriched)
30 μl of acetyl coenzyme A (5 nmol, additionally containing 0.02 μCi[2-^14C]acetylCoA)
30 min at 35° C.; evaluation of the radioactivity, which had been extracted using tert-butyl methyl ether, using a scintillation counter.
By plotting the measured results in a doubly reciprocal manner according to Lineweaver and Burk, the KM value for 10-deacetyltaxuyunnanin C was determined graphically to be 23 μM.

Compound | Conversion, based on the conversion of 10-deacetyltaxuyunnanin C [1] [%] | pkat (enzyme activity with the substrate) [1] [pkat] | also measured
CC(=O)O[C@@]12CO[C@@H]1C[C@H](O)[C@@]1(C)C(=O)[C@H](O)C3=C(C)[C@@H](OC(=O)[C@H](O)[C@@H](NC(=O)c4ccccc4)c4ccccc4)C[C@@](O)([C@@H](OC(=O)c4ccccc4)[C@H]21)C3(C)C [10-deacetyltaxol] | – | – | acetylation / acceptance as substrate by the enzyme (in words) [1]: not acetylated; also recorded: acetylation does not take place
C=C1C(O)CCC2(C)CC(O)C3=C(C)CC(O)C(C(OC(C)=O)C12)C3(C)C (centres unmarked) [5,10,14-Desacetyltaxuyunnanin C, 5,10,14-deacetyltaxuyunnanin C] | 88 | 0.99 | –
10,14-deacetyltaxuyunnanin C [10,14-Desacetyltaxuyunnanin C] | 102 | 1.14 | –
CC(=O)O[C@@]12CO[C@@H]1C[C@H](O)[C@@]1(C)C(=O)[C@H](O)C3=C(C)[C@@H](O)C[C@@](O)([C@@H](OC(=O)c4ccccc4)[C@H]21)C3(C)C [10-Desacetylbaccatin III, 10-deacetylbaccatin III] | 80 | 0.9 | Conversion, based on the conversion of 10-deacetyltaxuyunnanin C ([1]; listed as 10-DAB): 85%
CC(=O)SCCNC(=O)CCNC(=O)[C@H](O)C(C)(C)COP(=O)(O)OP(=O)(O)OC[C@H]1O[C@@H](n2cnc3c(N)ncnc32)[C@H](O)[C@@H]1OP(=O)(O)O [acetyl coenzyme A] | – | – | Km (acetyl transferase [2]): 61 µM
CC=C(C)C(=O)NC(c1ccccc1)C(O)C(=O)OC1CC2(O)C(OC(=O)c3ccccc3)C3C4(OC(C)=O)COC4CC(O)C3(C)C(=O)C(O)C(=C1C)C2(C)C (centres unmarked) [10-deacetylcephalomannin] | – | – | acetylation / acceptance as substrate by the enzyme (in words) [1]: not acetylated; also recorded: acetylation does not take place
CC(=O)O[C@@]12CO[C@@H]1C[C@H](OC(=O)OC(C)(C)C)[C@@]1(C)C(=O)[C@H](O)C3=C(C)[C@@H](O)C[C@@](O)([C@@H](OC(=O)c4ccccc4)[C@H]21)C3(C)C [7-BOC-10-DAB III] | 2 | 2 | acetylation / acceptance as substrate by the enzyme (in words) [1]: not recognized as substrates
CC(=O)OC12COC1CC(O)C1(C)C(=O)C(O)C3=C(C)C(O)CC(O)(C(OC(=O)c4ccccc4)C21)C3(C)C (stereo not drawn) [10-epi-10-DAB III] | 0 | 0 | –
CC[Si](CC)(CC)O[C@H]1C[C@H]2OC[C@@]2(OC(C)=O)[C@H]2[C@H](OC(=O)c3ccccc3)[C@]3(O)C[C@H](O)C(C)=C([C@@H](O)C(=O)[C@]12C)C3(C)C [7-TES-10-DAB III] | 0 | 0 | acetylation / acceptance as substrate by the enzyme (in words) [1]: not recognized as substrates
C=C1[C@@H](OC(C)=O)CC[C@@]2(C)C[C@H](O)C3=C(C)C[C@H](OC(C)=O)[C@@H]([C@@H](OC(C)=O)[C@H]12)C3(C)C [10-Desacetyltaxuyunnanin C, 10-deacetyltaxuyunnanin C] | 100 | 1.12 | Km (acetyl transferase [3]): 23 µM

Second part, led by results:

Conversion, based on the conversion of 10-deacetyltaxuyunnanin C [1] [%] | pkat (enzyme activity with the substrate) [1] [pkat] | Compound | also measured
38 | 0.43 | CC(=O)O[C@@]12CO[C@@H]1C[C@H](O)[C@@]1(CO)C(=O)[C@H](O)C3=C(C)[C@@H](O)C[C@@](O)([C@@H](OC(=O)c4ccccc4)[C@H]21)C3(C)C [19-Hydroxy-10-DAB III, 19-hydroxy-10-DAB III] | –
97 | 1.09 | CC(=O)OC12COC1CC(O)C1(C)C(=O)C(O)C3=C(C)C(O)C(O)C(O)(C(OC(=O)c4ccccc4)C21)C3(C)C (centres unmarked) [14-Hydroxy-10-DAB III, 14-hydroxy-10-deacetylbaccatin III] | –
53 | 0.59 | C=C1C(O)CCC2(C)CC(O)C3=C(C)CC(O)C(C(O)C12)C3(C)C (centres unmarked) [2,5,10,14-Desacetyltaxuyunnanin C, 2,5,10,14-deacetyltaxuyunnanin C] | –
81 | 0.91 | 2,10,14-deacetyltaxuyunnanin C [2,10,14-Desacetyltaxuyunnanin C] | –
